“Also recorded” adds a separate entry of the source. Read-outs that look alike come from different tables or passages of the source.
Legend:
[1] = Rat plasma pharmacokinetics after cumulative (QID) SC injections; conditions: for Cmax: parent analyte (total MDMA after Rac-MDMA)
[2] = Rat brain monoamine and metabolite concentrations 1 week after cumulative SC dosing; conditions: cumulative SC, 1 week after dosing
[3] = test system: C57BL/6J mice; test: Head twitch response (HTR); type: in vivo, mouse; conditions: 3 mg/kg IP, 30 minutes after injection
Outline: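 Male C57BL/6J mice with head-mounted magnets were given vehicle or test drug IP (0.1–10 mg/kg, salt-based dose, in saline; n=5-6/group). Head twitches were recorded by magnetometer coil for 30 minutes immediately after injection and classified by ResNet-50 features with SVM; treatments at least seven days apart.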

[4] = test system: CD (Sprague Dawley) rats; test: Rat telemetry: heart rate, blood pressure, body temperature, activity after cumulative SC dosing; type: in vivo
Source text: Methods. A total of 42 adult male CD® (Sprague Dawley) rats (Charles River Laboratories) were surgically implanted with DSI radiotelemetry devices by personnel at Charles River Laboratories Raleigh, NC, per their test site SOPs. Telemetry devices supported continuous recording of temperature, activity, blood pressure and heart rate. Telemeterized rats were shipped to the Charles River Laboratories testing facility (Mattawan, MI) and acclimated to the environment for at least 1 week prior to experimentation. Animals were pair-housed in solid bottom cages with nonaromatic bedding. On the dosing day, animals were singly housed and then returned to the paired cohort following the dosing/telemetry recording phase. Diet (Lab Diet® Certified Rodent Diet #5CR4) and tap water via an automatic water system were available ad libitum, except during designated procedures. Temperature and humidity were maintained according to the Testing Facility SOP. Animals were randomized into treatment groups using a standard, by weight, measured value randomization procedure. Body weight was determined for each rat prior to dosing.
As illustrated in the Table, a total of 36 rats were included in the study. The vehicle and 2 test article doses were administered in a volume of 1 mL/kg to each of 3 groups of n=12 telemeterized rats via subcutaneous injection four times on a given day, followed by neurobehavioral evaluations. This series was repeated 3 times on study. Each group received all 3 dose levels of the applicable test or control article in ascending order with a 1-week washout between dose levels.
Mortality/cage side clinical observations were conducted for all study animals at least twice daily beginning upon receipt through termination, except on days of receipt and termination where frequency was at least once daily. Detailed clinical observations were conducted for all study animals prior to each of the four cumulative doses in a series. Individual body weights were conducted for all study animals at transfer, prior to randomization, on the day of dosing on each of the 3 cycles of dosing. The body weights recorded at transfer and prior to randomization are not reported but are maintained in the study file. Veterinary care was available throughout the course of the study, and animals were examined by the veterinary staff as needed based on clinical signs or other changes. All animals were provided with HydroGel the night prior to their respective dosing days to potentially mitigate any animal welfare issues related to fluid loss/dehydration.
Telemetry monitoring was conducted for all animals 2 hours prior to dosing and through to 7.5 hours following the last (4th) cumulative dose of each series, which included continuous data collection of body temperature, activity, heart rate, and blood pressure (systolic, diastolic, and mean arterial) using telemetry.
The total period of time over which the statistical analyses were conducted encompassed the entire dosing period for all animals (i.e., Dose 1 through 7.5 hour post-4th dose) in an effort to draw conclusions regarding the effects of the dosing procedure and cumulative changes by allowing comparisons between the cumulative dosing periods. The following statistical analyses were performed for each analysis segment.
All time-series data comparisons conducted via statistical analysis are relative to the control treatment and are based on the LSMean values. Additionally, the change values used for the statistical analysis were calculated using a baseline of the 2 hours of pre-dose data, prior to the first compound injection of the series. The raw change values were analyzed.

[5] = male rat plasma, parent analyte, QID SC, total 10 mg/kg/day
[6] = male rat plasma, parent analyte, QID SC, total 20 mg/kg/day
[7] = telemetry, cumulative SC dosing, dose groups stated in the value

With `CNC(C)Cc1ccc2c(c1)OCO2` (single isomer, unassigned) [R-MDMA, R(−)-3,4-methylenedioxymethamphetamine] the AUC(0-t) [1] was 11800 ng·h/mL, the “dose dependence of Cmax and AUC0-27 hr” value ([1]; dose increase from 10 to 20 mg/kg/day of the dosed test article, QID SC) was “approximately dose proportional manner” and the “AUC0-27 hr/Dose” value [1, 5] was 420 *kg*ng/mL/mg. The Cmax/Dose [1, 5] was 114 kg·ng/mL/mg, the Tlast [1, 5] was 11 h and the “AUC0-27 hr/Dose” value [1, 6] was 590 *kg*ng/mL/mg. The Cmax/Dose [1, 6] was 127 kg·ng/mL/mg, the Tlast [1, 6] was 11 h and the AUC(0-t) ([1]; male, Sprague-Dawley (CD), rat, plasma, sc, 10 mg/kg/day, AUC0-27 hr, male rat plasma, parent analyte, QID SC, total 10 mg/kg/day) was 4200 ng·h/mL. The AUC(0-t) ([1]; male, Sprague-Dawley (CD), rat, plasma, sc, 10 mg/kg/day, AUCTlast, male rat plasma, parent analyte, QID SC, total 10 mg/kg/day) was 4160 ng·h/mL, the Cmax ([1]; male, Sprague-Dawley (CD), rat, plasma, sc, 10 mg/kg/day, male rat plasma, QID SC, total 10 mg/kg/day of the test article) was 1140 ng/mL and the half-life ([1]; male, Sprague-Dawley (CD), rat, plasma, sc, 10 mg/kg/day, T1/2, male rat plasma, parent analyte, QID SC, total 10 mg/kg/day) was 1.01 h. For the same compound, the AUC(0-t) ([1]; male, Sprague-Dawley (CD), rat, plasma, sc, 20 mg/kg/day, AUCTlast, male rat plasma, parent analyte, QID SC, total 20 mg/kg/day) was 11300 ng·h/mL, the Cmax ([1]; male, Sprague-Dawley (CD), rat, plasma, sc, 20 mg/kg/day, male rat plasma, QID SC, total 20 mg/kg/day of the test article) was 2550 ng/mL and the “striatal DA compared to the corresponding vehicle condition” value ([2]; 5 mg/kg/injection) was “significantly increased striatal DA”. The “frontal cortex 5-HT (serotonin) compared to vehicle” value ([2]; 5 mg/kg/injection, 5 mg/kg) was “did not reduce serotonin content in the frontal cortex”, the “striatal HVA compared to the pooled vehicle condition” value ([2]; 10 mg/kg/injection, n=2) was “significantly reduced striatal HVA” and the “head twitch response (HTR) compared to control (vehicle)” value [3] was “increase in HTR”. The “stepwise increases in blood pressure or heart rate with repeated doses” value ([4]; 4 hourly SC injections during telemetry monitoring) was “no stepwise increases in blood pressure or heart rate were observed”, the “hemodynamic parameters (systolic/diastolic/mean arterial blood pressures and heart rate)” value ([4]; 4 hourly SC injections, cumulative doses 5, 10, or 20 mg/kg/day) was “dose-dependent blood pressure-increasing effects” and the body temperature response ([4]; R-MDMA 10 mg/kg/day, 4 hourly SC injections) was “hypothermic response”. The body temperature response ([4]; R-MDMA 20 mg/kg/day, 4 hourly SC injections) was “hyperthermic response”, the “activity (implanted telemetry devices)” value ([4]; all cumulative doses (5, 10, or 20 mg/kg/day)) was “Activity-increasing effects” and the “recovery of blood pressure effects” value ([4]; by the end of telemetry monitoring (7.5 h after 4th dose)) was “only test article examined which produced recoverable effects by the end of telemetry monitoring”. For the same compound, the heart rate increase ([4]; maximum change, R-MDMA and racemic MDMA 10, 20 mg/kg/day, S-MDMA 5, 10 mg/kg/day, 4 hourly SC injections) was “up to +23%”, the peak body temperatures ([4]; overall mean magnitude of change, 4 hourly SC injections) was 38.6 °C and the “Rank Order Blood Pressures (Systolic, Diastolic, and Mean Arterial) Effects” value [4, 7] was “R-MDMA (10 mg/kg/day) < S-MDMA (5 mg/kg/day) < Rac.-MDMA (10 mg/kg/day); also recorded: R-MDMA (20 mg/kg/day) < S-MDMA (10 mg/kg/day) < Rac-MDMA (20 mg/kg/day); also recorded: R-MDMA (0 mg/kg/day) < R-MDMA (10 mg/kg/day) < R-MDMA (20 mg/kg/day); also recorded: R-MDMA (10 mg/kg/day) < S-MDMA (10 mg/kg/day) < Rac-MDMA (20 mg/kg/day)”. For the same compound, the “Rank Order Body Temperature Effects” value [4, 7] was “R-MDMA (10 mg/kg/day) < S-MDMA (5 mg/kg/day) < Rac.-MDMA (10 mg/kg/day); also recorded: R-MDMA (20 mg/kg/day) < S-MDMA (10 mg/kg/day) < Rac-MDMA (20 mg/kg/day); also recorded: R-MDMA (0 mg/kg/day) < R-MDMA (10 mg/kg/day) < R-MDMA (20 mg/kg/day); also recorded: R-MDMA (10 mg/kg/day) < S-MDMA (10 mg/kg/day) < Rac-MDMA (20 mg/kg/day)”, the “Rank Order General Activity Effects” value [4, 7] was “R-MDMA (10 mg/kg/day) < S-MDMA (5 mg/kg/day) < Rac.-MDMA (10 mg/kg/day); also recorded: R-MDMA (20 mg/kg/day) < S-MDMA (10 mg/kg/day) < Rac-MDMA (20 mg/kg/day); also recorded: R-MDMA (0 mg/kg/day) < R-MDMA (10 mg/kg/day) < R-MDMA (20 mg/kg/day); also recorded: R-MDMA (10 mg/kg/day) < S-MDMA (10 mg/kg/day) < Rac-MDMA (20 mg/kg/day)” and the “Rank Order Heart Rate Measurement Effects” value [4, 7] was “R-MDMA (10 mg/kg/day) < S-MDMA (5 mg/kg/day) < Rac.-MDMA (10 mg/kg/day); also recorded: R-MDMA (20 mg/kg/day) < S-MDMA (10 mg/kg/day) < Rac-MDMA (20 mg/kg/day); also recorded: R-MDMA (0 mg/kg/day) < R-MDMA (10 mg/kg/day) < R-MDMA (20 mg/kg/day); also recorded: R-MDMA (10 mg/kg/day) < S-MDMA (10 mg/kg/day) < Rac-MDMA (20 mg/kg/day)”.
